Data on four compounds can be found in article PMC11523213, “Fluorinated N-Heterocyclic Carbene Silver(I) Complexes with High Cancer Cell Selectivity” (Organometallics, 2024).

In one assay the test system is MCF-7. In words: Cell viability (MTT) assay, 24 h. The format is cell-based, human. The note with it: for IC50: 24 h treatment, MTT, n = 9, read-out: IC50 ± SD, MCF-7. The procedure: (§1) All cells were treated with compounds for 24 h, and cell viability was determined via the MTT assay. […] The nonfluorinated benzyl–imidazole complex [Ag2(L5)2](PF6)2 was synthesized and screened to determine if the fluorine has any influence on cytotoxicity.
(§2) All cytotoxicity assays were conducted using human cell lines: breast adenocarcinomas (MDA-MB-231 and MCF-7) and non-cancerous epithelial retinal (ARPE-19) cell lines. All cell lines were routinely maintained as monolayer cultures in an appropriate complete medium: MCF-7 and ARPE-19 in high glucose DMEM complete medium (including 10% FBS, 1 mM sodium pyruvate, 2 mM L-glutamine and 1% pen-strep) and MDA-MB-231 in RPMI-1640 complete medium (including 10% FBS, 1 mM sodium pyruvate, 2 mM L-glutamine and 1% pen-strep) and grown in either T-25 or T-75 flasks at 37 °C and 5% CO2. Prior to chemosensitivity studies, cell monolayers were passaged using Trypsin-EDTA (0.05%) and diluted to a concentration of 4 × 10^4 cells/mL. All assays were conducted using 96-well plates, in which 100 μL of the cell suspension was added for 24 h at 37 °C and 5% CO2 and then 100 μL of compound/media dilutions for a further 24 h (compound stocks were made using sterile DMSO at 100 mM prior to dilution and a maximum of 0.1% DMSO used in each assay).

The test system of another assay is MDA-MB-231. Briefly: Cell viability (MTT) assay, 24 h. As to conditions: for IC50: 24 h treatment, MTT, n = 9, read-out: IC50 ± SD, MDA-MB-231; for MCF-7/MDA-MB-231 SR (selectivity ratio): ratio of IC50 MCF-7 versus MDA-MB-231. The assay is classed as cell-based, human. The procedure:
as §1, §2

Another assay concerns ARPE-19. Briefly: Cell viability (MTT) assay, 24 h, noncancerous cells. The assay is classed as cell-based, human. The note with it: n = 9, noncancerous retinal epithelia, read-out: IC50 ± SD, ARPE-19. The procedure: as §1, §2
The subject of another assay is DNA. Also on record: method as in PMID 27060216. As to conditions: cited from earlier work.
The mark [1] stands for this setting: Homo sapiens, ARPE-19, 24 h treatment.

Like-named read-outs stand apart in the source and are kept apart here.

Turning to `[NH2][Pt]([NH2])([Cl])[Cl]` [CDDP, cisplatin, reference compound], the IC50 (in general, the concentration needed to halve the response being measured) is 54 ± 3 µM in the assay on MCF-7, over 100 µM with MDA-MB-231 and over 100 µM with ARPE-19 (24 h treatment). Moreover, in the assay with MCF-7 (SI > 1 indicates selectivity for the breast cancer line, * = minimum value), the “Selectivity index (SI) MCF-7 vs ARPE-19” value is at least 1.84. Moreover, the “MCF-7/MDA-MB-231 SR (selectivity ratio)” value in the assay with MDA-MB-231 was under 0.54.

For the compound `Fc1ccc(C[n+]2cn(Cn3c[n+](Cc4ccc(F)cc4)c4ccccc43)c3ccccc32)cc1` [H2L4(PF6)2, 1,1′-Bis-(4-fluorobenzyl)-3,3′-methylenedibenzimidazolium dihexafluorophosphate], the IC50 in the assay on MCF-7 (Homo sapiens, MCF7) was over 100 µM; in the assay on MDA-MB-231 (Homo sapiens, MDA-MB-231), over 100 µM; with ARPE-19 (setting [1]) it was over 100 µM.

Turning to `Fc1ccc(Cn2c[n+](Cc3ccc(F)cc3)c3ccccc32)cc1` [HL2(PF6), 1,3-Bis-(4-fluorobenzyl)benzimidazolium hexafluorophosphate], the IC50 in the assay on MCF-7 (Homo sapiens, MCF7) was over 100 µM; in the assay on MDA-MB-231 (Homo sapiens, MDA-MB-231) it was 42.6 ± 0.05 µM; with ARPE-19 (setting [1]) it was over 100 µM. For the same compound, the “MCF-7/MDA-MB-231 SR (selectivity ratio)” value in the assay on MDA-MB-231 is reported as over 2.35.

`COc1cccc2c1C(=O)c1c(O)c3c(c(O)c1C2=O)C[C@@](O)(C(=O)CO)C[C@@H]3O[C@H]1C[C@H](N)[C@H](O)[C@H](C)O1` [doxorubicin]: the “Binding constant to DNA” value with DNA is 2.33 ± 0.33 × 10^4 M^–1.
